Assay results reported in patent publication US20210198277A1, “AMINE-SUBSTITUTED ARYL OR HETEROARYL COMPOUNDS” (Epizyme, Inc., priority 2016, published 2021).

These compounds were tested against T1, EHMT2 (Homo sapiens, UniProt Q96KQ7) (assay: MDA-MB-231 H3K9me2 in-cell Western assay (EHMT2 ICW)). Settings: Table II; MDA-MB-231 H3K9me2 in-cell Western; read-out: EHMT2 ICW (IC50 μM).
T1 construct: host or cells: MDA-MB-231
T1 sequence (Q96KQ7 1-1210): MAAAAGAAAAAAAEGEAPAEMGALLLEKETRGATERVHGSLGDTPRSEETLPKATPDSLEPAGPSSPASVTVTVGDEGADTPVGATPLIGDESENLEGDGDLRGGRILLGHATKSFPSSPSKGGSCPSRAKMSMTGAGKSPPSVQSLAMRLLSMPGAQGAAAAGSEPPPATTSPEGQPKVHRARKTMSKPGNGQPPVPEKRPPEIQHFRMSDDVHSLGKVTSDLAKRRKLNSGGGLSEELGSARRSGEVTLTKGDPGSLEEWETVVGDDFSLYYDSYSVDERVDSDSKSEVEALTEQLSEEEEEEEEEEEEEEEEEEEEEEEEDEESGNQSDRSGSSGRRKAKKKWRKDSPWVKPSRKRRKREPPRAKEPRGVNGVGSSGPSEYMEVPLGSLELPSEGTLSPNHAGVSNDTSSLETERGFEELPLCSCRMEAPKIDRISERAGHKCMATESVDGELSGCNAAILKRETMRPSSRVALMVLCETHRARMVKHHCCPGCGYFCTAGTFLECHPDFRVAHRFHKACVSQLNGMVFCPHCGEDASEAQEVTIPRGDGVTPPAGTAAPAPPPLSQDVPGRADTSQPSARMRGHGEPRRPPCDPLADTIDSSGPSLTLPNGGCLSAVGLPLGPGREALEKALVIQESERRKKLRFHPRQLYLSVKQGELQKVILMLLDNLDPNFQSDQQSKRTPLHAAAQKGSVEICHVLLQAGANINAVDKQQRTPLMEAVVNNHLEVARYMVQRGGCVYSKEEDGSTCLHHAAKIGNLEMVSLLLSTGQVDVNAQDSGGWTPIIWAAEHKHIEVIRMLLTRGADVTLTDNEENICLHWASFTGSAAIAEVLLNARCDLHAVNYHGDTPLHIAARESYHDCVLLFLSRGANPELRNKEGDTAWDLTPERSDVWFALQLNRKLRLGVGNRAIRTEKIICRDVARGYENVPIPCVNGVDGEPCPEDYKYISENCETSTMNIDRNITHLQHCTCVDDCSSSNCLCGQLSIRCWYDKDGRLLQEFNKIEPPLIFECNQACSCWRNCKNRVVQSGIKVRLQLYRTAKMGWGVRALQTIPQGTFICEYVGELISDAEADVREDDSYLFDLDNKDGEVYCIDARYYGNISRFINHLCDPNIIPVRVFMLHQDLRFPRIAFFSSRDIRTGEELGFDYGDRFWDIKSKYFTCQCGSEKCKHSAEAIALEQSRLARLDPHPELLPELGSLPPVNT
Format: cell-based
Source text: RPMI/Glutamax medium, Penicillin-Streptomycin, Heat Inactivated Fetal Bovine Serum, and D-PBS were purchased from Life Technologies (Grand Island, N.Y., USA). Odyssey blocking buffer, 800CW goat anti-mouse IgG (H+L) antibody, and Licor Odyssey Infrared Scanner were purchased from Licor Biosciences, Lincoln, Nebr., USA. […] 16% Paraformaldehyde was purchased from Electron Microscopy Sciences, Hatfield, Pa., USA).MDA-MB-231 cells were maintained in complete growth medium (RPMI supplemented with 10% v/v heat inactivated fetal bovine serum) and cultured at 37° C. under 5% CO2. UNC0638 was purchased from Sigma-Aldrich (St. Louis, Mo., USA).
Compound (100 nL) was added directly to 384-well cell plate. MDA-MB-231 cells (ATCC) were seeded in assay medium (RPMI/Glutamax supplemented with 10% v/v heat inactivated fetal bovine serum and 1% Penicillin/Streptomycin, Life Technologies) at a concentration of 3,000 cells per well to a Poly-D-Lysine coated 384-well cell culture plate with 50 μL per well. […] Plates were incubated at room temperature for 30 minutes and then incubated at 37° C., 5% CO2 for additional 48 hours. After the incubation, 50 μL per well of 8% paraformaldehyde (Electron Microscopy Sciences) in PBS was added to the plates and incubated at room temperature for 20 minutes. […] Next, 60 μL per well of Odyssey blocking buffer (Licor Biosciences) was added to each plate and incubated for 1 hour at room temperature. Blocking buffer was removed and 20 μL of monoclonal primary antibody α-H3K9me2 (Abcam) diluted 1:800 in Odyssey buffer with 0.1% Tween 20 (v/v) were added and plates were incubated overnight (16 hours) at 4° C. Plates were washed 5 times with 100 μL per well of wash buffer. Next 20 μL per well of secondary antibody was added (1:500 800CW donkey anti-mouse IgG (H+L) antibody (Licor Biosciences), 1:1000 DRAQ5 (Cell Signaling Technology) in Odyssey buffer with 0.1% Tween 20 (v/v)) and incubated for 1 hour at room temperature. The plates were washed 5 times with 100 μL per well wash buffer then 2 times with 100 μL per well of water. Plates were allowed to dry at room temperature then imaged on a Licor Odyssey Infrared Scanner (Licor Biosciences) which measured integrated intensity at 700 nm and 800 nm wavelengths. Both 700 and 800 channels were scanned.
First, the ratio for each well was determined by:
The average of the ratio values for each well was calculated and used to determine the percent inhibition for each test well in the plate. Control compound was serially diluted three-fold in DMSO for a total of 10 test concentrations beginning at 1 μM. Percent inhibition was calculated as: […]
IC50 curves were generated using triplicate wells per concentration of compound. […] IC50 values were calculated using a non-linear regression (variable slope-four parameter fit model) with by the following formula: […]

IC50 [µM] | SMILES
> 10 | COc1ccc(N(C)c2nccc(NCC3CCN(C(C)=O)CC3)n2)cc1OCCCN1CCCC1 [Compound 158]
1 to 10 | COc1ccc(Nc2nccc(NCC3CCN(C)CC3)n2)cc1OCCCNc1ccccc1 [Compound 159]
> 10 | COc1ccc(Nc2nccc(NCC3CCN(C(C)=O)CC3)n2)cc1OCCCNc1ccccc1 [Compound 160]
> 10 | COc1ccc(Nc2nccc(N3CCC(NC(C)=O)CC3)n2)cc1OCCCN1CCCC1 [Compound 161]
> 10 | COc1ccc(Nc2nccc(N3CCN(S(C)(=O)=O)CC3)n2)cc1OCCCN1CCCC1 [Compound 162]
> 10 | COc1ccc(Nc2cc(N(C)CC3CCN(C(C)=O)CC3)ccn2)cc1OCCCN1CCCC1 [Compound 163]
> 10 | COc1ccc(Nc2nccc(NCc3ccc4[nH]ncc4c3)n2)cc1OCCCN1CCCC1 [Compound 164]
> 10 | COc1ccc(Nc2nccc(NCc3ccc(=O)[nH]c3)n2)cc1OCCCN1CCCC1 [Compound 165]
> 10 | COc1ccc(Nc2nccc(NCC3CCN(C(C)=O)CC3)n2)cc1OCCC(=O)N1CCCC1 [Compound 166]
0.1 to 1 | COc1ccc(Nc2nccc(NCCc3ccccn3)n2)cc1OCCCN1CCCC1 [Compound 167]
1 to 10 | COc1ccc(Nc2nccc(N3CCN(c4ccccn4)CC3)n2)cc1OCCCN1CCCC1 [Compound 168]
> 10 | COc1ccc(Nc2nccc(N3CCS(=O)(=O)CC3)n2)cc1OCCCN1CCCC1 [Compound 169]
> 10 | COc1ccc(Nc2nccc(N3CC(C(=O)N(C)C)C3)n2)cc1OCCCN1CCCC1 [Compound 170]
1 to 10 | COc1ccc(Nc2nccc(N(C)C)n2)cc1OCCCN1CCCC1 [Compound 171]
> 10 | COc1ccc(Nc2nccc(N(C)CC3CCN(C(C)=O)CC3)n2)cc1OCCCN1CCCC1 [Compound 172]
> 10 | COc1ccc(Nc2cc(OCC3CCN(C(C)=O)CC3)ccn2)cc1OCCCN1CCCC1 [Compound 173]
> 10 | COc1ccc(Nc2nccc(C)n2)cc1OCCCN1CCCC1 [Compound 174]
> 10 | COc1ccc(Nc2nc(C)cc(C)n2)cc1OCCCN1CCCC1 [Compound 175]
> 10 | CNc1cccc(Nc2ccc(OC)c(OCCCN3CCCC3)c2)n1 [Compound 176]

IC50 [µM] | SMILES
> 10 | COCCN(C)c1ccnc(Nc2ccc(OC)c(OCCCN3CCCC3)c2)n1 [Compound 177]
0.1 to 1 | COc1ccc(Nc2nccc(NCCC3CCOCC3)n2)cc1OCCCN1CCCC1 [Compound 178]
> 10 | COc1ccc(Nc2nccc(N3CC(C(N)=O)C3)n2)cc1OCCCN1CCCC1 [Compound 179]
> 10 | COc1ccc(Nc2nccc(-n3cc(C)cn3)n2)cc1OCCCN1CCCC1 [Compound 180]
> 10 | COc1ccc(Nc2ncc(CO)cn2)cc1OCCCN1CCCC1 [Compound 181]
> 10 | COc1cnc(Nc2cc(NCC3CCN(C(C)=O)CC3)ccn2)cc1OCCCN1CCCC1 [Compound 182]
1 to 10 | COc1ccc(Nc2nccc(NCC3CCN(C(C)=O)CC3)n2)cc1OCC(C)CN1CCCC1 (centres unmarked) [Compound 183]
> 10 | COc1ccc(Nc2cncc(NCC3CCN(C(C)=O)CC3)c2)cc1OCCCN1CCCC1 [Compound 184]
> 10 | COc1ccc(Nc2cc(NCC3CCN(C(C)=O)CC3)cnn2)cc1OCCCN1CCCC1 [Compound 185]
0.1 to 1 | CNc1cc(C)nc(Nc2ccc(OC)c(OCCCN3CC[C@@H](F)C3)c2)n1 [Compound 186]
1 to 10 | CNc1nc(Nc2ccc(OC)c(OCCCN3CCCC3)c2)ncc1F [Compound 187]
> 10 | CNc1cc(Nc2ccc(OC)c(OCCCN3CCCC3)c2)cnn1 [Compound 188]
0.1 to 1 | COc1ccc(Nc2nccc(NCc3ccc4nccn4c3)n2)cc1OCCCN1CCCC1 [Compound 191]
1 to 10 | COc1ccc(Nc2nccc(NC3CN(C(C)=O)C3)n2)cc1OCCCN1CCCC1 [Compound 192]
0.1 to 1 | COc1ccc(Nc2nccc(NCCn3cccn3)n2)cc1OCCCN1CCCC1 [Compound 193]
1 to 10 | COc1ccc(Nc2nccc(NCC3CCN(C(C)=O)CC3)n2)cc1OC(C)CCN1CCCC1 (centres unmarked) [Compound 195]
1 to 10 | COc1ccc(Nc2nccc(NCC3CCN(S(C)(=O)=O)CC3)n2)cc1OCCCN1CCCC1 [Compound 199]
0.1 to 1 | CCOC(=O)N1CCC(CNc2ccnc(Nc3ccc(OC)c(OCCCN4CCCC4)c3)n2)CC1 [Compound 203]
> 10 | COc1ccc(Nc2nccc(NCC3CCOCC3)n2)cc1OCCN1CCOCC1 [Compound 204]
